Measured values published in publication PMC5839718 (The Journal of General Physiology, 2018).
Values joined by “and” are separate entries in the source; they are usually repeats but may differ in a detail not shown here. Equal values may be shown once.

Columns and labels:
Format in all cases: cell-based
[1] = target: α4β2 nAChR from concatenated β-6-α alone (Homo sapiens, UniProt P17787+P43681); assay: two-electrode voltage-clamp, oocytes, β-6-α alone
[2] = target: α4β2 nAChR from β-21a-α^VFL-α-β-α (Homo sapiens, UniProt P17787+P43681, H142V/Q150F/T152L); assay: two-electrode voltage-clamp, oocytes, pentameric β-21a-α^VFL-α-β-α
[3] = target: α4β2 nAChR from β-3a-α^VFL-α-β-α (Homo sapiens, UniProt P17787+P43681, H142V/Q150F/T152L); assay: two-electrode voltage-clamp, oocytes, pentameric β-3a-α^VFL-α-β-α
[4] = target: α4β2 nAChR from β-0a-α and α4^VFL (1:1) (Homo sapiens, UniProt P17787+P43681, H142V/Q150F/T152L); assay: two-electrode voltage-clamp, oocytes, β-0a-α and α4^VFL; settings: β-0a-α + α4^VFL; biphasic fit
[5] = target: α4β2 nAChR from β-6-α-9-β-6-α alone (Homo sapiens, UniProt P17787+P43681); assay: two-electrode voltage-clamp, oocytes, tetrameric β-6-α-9-β-6-α alone
[6] = target: α4β2 nAChR from β-21a-α-α-β-α (Homo sapiens, UniProt P17787+P43681); assay: two-electrode voltage-clamp, oocytes, pentameric β-21a-α-α-β-α
[7] = target: α4β2 nAChR from β-3a-α-β-α-α^VFL (Homo sapiens, UniProt P17787+P43681, H142V/Q150F/T152L); assay: two-electrode voltage-clamp, oocytes, pentameric β-3a-α-β-α-α^VFL
[8] = target: α4β2 nAChR from β-6a-α and α4^VFL (1:1) (Homo sapiens, UniProt P17787+P43681, H142V/Q150F/T152L); assay: two-electrode voltage-clamp, oocytes, β-6a-α and α4^VFL; settings: β-6a-α + α4^VFL; biphasic fit
[9] = target: α4β2 nAChR from β-3a-α and α4^VFL (1:1) (Homo sapiens, UniProt P17787+P43681, H142V/Q150F/T152L); assay: two-electrode voltage-clamp, oocytes, β-3a-α and α4^VFL; settings: β-3a-α + α4^VFL; biphasic fit
[10] = target: α4β2 nAChR from β-21a-α-β-α-α^VFL (Homo sapiens, UniProt P17787+P43681, H142V/Q150F/T152L); assay: two-electrode voltage-clamp, oocytes, pentameric β-21a-α-β-α-α^VFL
[11] = target: α4β2 nAChR from β-6-α and α4^VFL (1:1) (Homo sapiens, UniProt P17787+P43681, H142V/Q150F/T152L); assay: two-electrode voltage-clamp, oocytes, β-6-α and α4^VFL 1:1; settings: β-6-α + α4^VFL 1:1; biphasic fit
[12] = target: α4β2 nAChR from β-3a-α^VFL-β-α-α (Homo sapiens, UniProt P17787+P43681, H142V/Q150F/T152L); assay: two-electrode voltage-clamp, oocytes, pentameric β-3a-α^VFL-β-α-α
[13] = target: (α4^VFL)3(β2)2 nAChR from α4^VFL and β2 (10:1) (Homo sapiens, UniProt P17787+P43681, H142V/Q150F/T152L); assay: two-electrode voltage-clamp, X. laevis oocytes, α4^VFL and β2 cRNA 10:1
[14] = target: α4β2 nAChR from β-9a-α and α4^VFL (1:1) (Homo sapiens, UniProt P17787+P43681, H142V/Q150F/T152L); assay: two-electrode voltage-clamp, oocytes, β-9a-α and α4^VFL; settings: β-9a-α + α4^VFL; biphasic fit
[15] = target: α4β2 nAChR from β-9a-α alone (Homo sapiens, UniProt P17787+P43681); assay: two-electrode voltage-clamp, oocytes, β-9a-α alone
[16] = target: α4β2 nAChR from β-3a-α-β-α-α (Homo sapiens, UniProt P17787+P43681); assay: two-electrode voltage-clamp, oocytes, pentameric β-3a-α-β-α-α
[17] = target: α4β2 nAChR from β-6a-α alone (Homo sapiens, UniProt P17787+P43681); assay: two-electrode voltage-clamp, oocytes, β-6a-α alone
[18] = target: α4β2 nAChR from β-9a-α and α4 (1:1) (Homo sapiens, UniProt P17787+P43681); assay: two-electrode voltage-clamp, oocytes, β-9a-α and α4; settings: β-9a-α + α4; biphasic fit
[19] = target: α4β2 nAChR from β-21a-α-β-α-α (Homo sapiens, UniProt P17787+P43681); assay: two-electrode voltage-clamp, oocytes, pentameric β-21a-α-β-α-α
[20] = target: α4β2 nAChR from β-6-α and α4 (1:1) (Homo sapiens, UniProt P17787+P43681); assay: two-electrode voltage-clamp, oocytes, β-6-α and α4; settings: β-6-α + α4; biphasic fit
[21] = target: α4β2 nAChR from β-6-α-9-β-6-α and α4^VFL (1:1) (Homo sapiens, UniProt P17787+P43681, H142V/Q150F/T152L); assay: two-electrode voltage-clamp, oocytes, β-6-α-9-β-6-α and α4^VFL 1:1; settings: β-6-α-9-β-6-α + α4^VFL 1:1; biphasic fit

Chain of α4β2 nAChR from β-21a-α-β-α-α (P17787 26-502): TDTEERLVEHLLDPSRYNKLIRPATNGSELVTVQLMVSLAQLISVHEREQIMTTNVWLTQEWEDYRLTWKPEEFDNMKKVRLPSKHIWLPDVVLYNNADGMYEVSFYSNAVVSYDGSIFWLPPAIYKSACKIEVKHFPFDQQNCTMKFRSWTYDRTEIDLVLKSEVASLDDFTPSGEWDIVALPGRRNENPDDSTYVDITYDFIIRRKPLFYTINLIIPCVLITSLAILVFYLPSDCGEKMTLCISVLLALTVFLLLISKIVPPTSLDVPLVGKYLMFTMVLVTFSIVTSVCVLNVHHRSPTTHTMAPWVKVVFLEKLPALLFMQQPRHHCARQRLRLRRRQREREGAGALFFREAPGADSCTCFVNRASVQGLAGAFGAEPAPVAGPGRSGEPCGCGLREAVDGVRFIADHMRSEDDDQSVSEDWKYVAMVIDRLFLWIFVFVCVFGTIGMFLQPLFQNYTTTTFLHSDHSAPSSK
Chain of α4β2 nAChR from β-21a-α-β-α-α (P43681 27-627): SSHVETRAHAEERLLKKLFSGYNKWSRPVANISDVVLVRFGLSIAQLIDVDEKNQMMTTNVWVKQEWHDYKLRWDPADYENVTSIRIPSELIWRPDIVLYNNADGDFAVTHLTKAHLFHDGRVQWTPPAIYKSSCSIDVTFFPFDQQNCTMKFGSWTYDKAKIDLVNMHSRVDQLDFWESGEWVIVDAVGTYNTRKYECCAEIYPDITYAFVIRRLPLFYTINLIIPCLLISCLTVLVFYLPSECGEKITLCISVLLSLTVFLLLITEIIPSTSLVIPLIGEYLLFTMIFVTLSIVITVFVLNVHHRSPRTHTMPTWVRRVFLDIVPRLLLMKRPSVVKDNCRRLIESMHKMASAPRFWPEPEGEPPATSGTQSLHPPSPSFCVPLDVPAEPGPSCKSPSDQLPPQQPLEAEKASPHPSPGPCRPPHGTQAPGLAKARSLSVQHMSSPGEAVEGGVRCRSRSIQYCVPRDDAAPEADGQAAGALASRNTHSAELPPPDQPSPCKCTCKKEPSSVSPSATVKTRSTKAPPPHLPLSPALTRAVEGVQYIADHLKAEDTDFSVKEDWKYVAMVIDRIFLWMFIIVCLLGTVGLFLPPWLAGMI
Chain of α4β2 nAChR from β-21a-α-β-α-α (P17787 26-502): as the sequence (P17787 26-502) above
Chain of α4β2 nAChR from β-21a-α-β-α-α (P43681 27-627): as the sequence (P43681 27-627) above
Chain of α4β2 nAChR from β-21a-α-β-α-α (P43681 27-627): as above
Chain of α4β2 nAChR from β-6-α-9-β-6-α alone (P43681 27-627): as above
Chain of α4β2 nAChR from β-6-α-9-β-6-α alone (P17787 26-502): as the sequence (P17787 26-502) above
Chain of (α4^VFL)3(β2)2 nAChR from α4^VFL and β2 (10:1) (P43681 27-627 H142V/Q150F/T152L): as the sequence (P43681 27-627) above, with H116V, Q124F, T126L counted along it
Chain of (α4^VFL)3(β2)2 nAChR from α4^VFL and β2 (10:1) (P17787 26-502): as the sequence (P17787 26-502) above

CC(=O)OCC[N+](C)(C)C [ACh, acetylcholine]
Emax ([1]; read-out: ACh Emax): 102 ± 2% | ACh Frac (first component fraction) ([1]; β-6-α alone, biphasic fit): 0.11 and 0.11 ± 0.02 | Emax ([2]; read-out: ACh Emax): 104 ± 1% | ACh Frac (first component fraction) ([2]; β-21a-α^VFL-α-β-α, biphasic fit): 0.44 ± 0.1 | Emax ([3]; read-out: ACh Emax): 105 ± 4% | ACh Frac (first component fraction) ([3]; β-3a-α^VFL-α-β-α, biphasic fit): 0.28 ± 0.10 | ACh Frac (first component fraction) [4]: 0.28 ± 0.34 | Emax ([5]; read-out: ACh Emax): 109 ± 5% | ACh Frac (first component fraction) ([5]; β-6-α-9-β-6-α alone, biphasic fit): 0.45 and 0.45 ± 0.07 | Emax ([6]; read-out: ACh Emax): 100 ± 2% | ACh Frac (first component fraction) ([6]; β-21a-α-α-β-α, biphasic fit): 0.060 ± 0.025 | Emax ([7]; read-out: ACh Emax): 104 ± 1% | ACh Frac (first component fraction) ([7]; β-3a-α-β-α-α^VFL, biphasic fit): 0.53 ± 0.08 | ACh Frac (first component fraction) [8]: 0.31 ± 0.14 | ACh Frac (first component fraction) [9]: 0.41 ± 0.06 | Emax ([10]; read-out: ACh Emax): 105 ± 1% | ACh Frac (first component fraction) ([10]; β-21a-α-β-α-α^VFL, biphasic fit): 0.59 ± 0.07 | ACh Frac (first component fraction) [11]: 0.40 ± 0.08 | Emax ([12]; read-out: ACh Emax): 105 ± 1% | ACh Frac (first component fraction) ([12]; β-3a-α^VFL-β-α-α, biphasic fit): 0.39 ± 0.05 | Emax ([13]; read-out: ACh Emax): 104 ± 2% | ACh Frac (first component fraction) ([13]; α4^VFL+β2 10:1, biphasic fit): 0.71 ± 0.12 | ACh Frac (first component fraction) [14]: 0.32 ± 0.09 | Emax ([15]; read-out: ACh Emax): 105 ± 3% | ACh Frac (first component fraction) ([15]; β-9a-α alone, biphasic fit): 0.28 and 0.28 ± 0.05 | Emax ([16]; read-out: ACh Emax): 102 ± 1% | ACh Frac (first component fraction) ([16]; β-3a-α-β-α-α, biphasic fit): 0.11 ± 0.02 | Emax ([17]; read-out: ACh Emax): 103 ± 2% | ACh Frac (first component fraction) ([17]; β-6a-α alone, biphasic fit): 0.70 ± 0.12 | ACh Frac (first component fraction) [18]: 0.13 ± 0.05 | Emax ([19]; read-out: ACh Emax): 101 ± 1% | mean AChmax-evoked currents ([19]; β-21a-α-β-α-α): ~2 μA | ACh Frac (first component fraction) ([19]; β-21a-α-β-α-α, biphasic fit): 0.060 ± 0.011 | ACh Frac (first component fraction) [20]: 0.073 ± 0.038 | ACh Frac (first component fraction) [21]: 0.41 ± 0.09
